Where a SMILES comes first, the peptide text is derived from it. Bridges are numbered along the chain shown (N, C = ends). Roman numbers before positions name the chains, in order. Where no end group is shown, it is not given here.
These compounds were tested on C. albicans (assay: microbe, parasite or virus in culture). Conditions: against both C. albicans and Fusarium strains.
Format: cell-based
Procedure: The yeast strains were cultivated and suspended in Sabouraud's Dextrose (SD) broth diluted at one sixth at a starting OD600=˜0.08 in a flat-bottomed microtitre plate. A serial dilution of peptide in the same broth was mixed with the inoculum to give a final peptide concentration of 0.4-22 μM. The antifungal activity was assessed by monitoring the OD600 in cycles of 30 minutes and an orbital shaking at 100 rpm using an Infinite M200 microplate reader (Tecan Group Ltd., Switzerland) for 24/48 h at 37° C. Cultures without peptides were used as positive controls and broth alone or with 22 μM peptide served as negative controls. The minimum concentration required for complete inhibition was assessed by both visible observations as well as by measuring the OD600 and taken as the MIC. Each experiment was repeated in triplicates.

| Compound | antifungal activity |
| --- | --- |
| RGRKVVRRKK [Monomer, reference compound] | weak antifungal activity |
| RGRKVVRRKKKRRVVKRGR [Linear Retrodimer, reference compound] | weak antifungal activity |

These compounds were tested on IOBA-NHC cells (assay: not given). Conditions: 24 h.
Format: cell-based, human
Procedure: IOBA-NHC cells were cultured under standard conditions (humidified atmosphere of 5% CO2 at 37° C.) in DMEM/F12 supplemented with 1 μg/ml bovine pancreas insulin, 2 ng/ml mouse epidermal growth factor, 0.1 μg/ml cholera toxin, […] hydrocortisone, 10% fetal bovine serum (FBS), 50 UI/ml penicillin, and 50 UI/ml streptomycin. Cells from passages 50-80 were used in all experiments. Every day, normal culture development was observed by phase-contrast microscopy. Cells were removed by gentle trypsin incubation at confluence and counted. They were seeded into 96 well culture plates (Corning, Schiphol-Rijk, The Netherlands) for microtitration analysis of flow cytotoxicity assay (˜10,000 cells/well). Cultures were kept at 37° C. for 24 h. Subconfluent cells (culture surface covering nearly 70%) were then exposed to various peptide concentrations (0.22-225 μM). Cytotoxicity was measured periodically using MultiTox-Fluor Multiplex assay kit (Promega, Wis., USA) by measuring the AFC fluorescence (λex=485 and λem=520 nm).

| Compound | EC50 [µM] |
| --- | --- |
| C[C@H](NC(=O)[C@H](C)NC(=O)[C@H](CCCNC(=N)N)NC(=O)CNC(=O)[C@@H](N)CCCNC(=N)N)C(=O)N[C@@H](C)C(=O)N[C@@H](CCCNC(=N)N)C(=O)N[C@@H](CCCNC(=N)N)C(=O)NCCCC[C@H](NC(=O)[C@H](CCCNC(=N)N)NC(=O)[C@H](CCCNC(=N)N)NC(=O)[C@H](C)NC(=O)[C@H](C)NC(=O)[C@H](C)NC(=O)[C@H](CCCNC(=N)N)NC(=O)CNC(=O)[C@@H](N)CCCNC(=N)N)C(=O)NCCCC[C@H](NC(=O)[C@H](CCCCNC(=O)[C@H](CCCNC(=N)N)NC(=O)[C@H](CCCNC(=N)N)NC(=O)[C@H](C)NC(=O)[C@H](C)NC(=O)[C@H](C)NC(=O)[C@H](CCCNC(=N)N)NC(=O)CNC(=O)[C@@H](N)CCCNC(=N)N)NC(=O)[C@H](CCCNC(=N)N)NC(=O)[C@H](CCCNC(=N)N)NC(=O)[C@H](C)NC(=O)[C@H](C)NC(=O)[C@H](C)NC(=O)[C@H](CCCNC(=N)N)NC(=O)CNC(=O)[C@@H](N)CCCNC(=N)N)C(=O)N[C@@H](CCCCN)C(=O)O [[(SEQ ID NO: 16)2K]2KK] (I: H-RGRAAARRKKK-OH / II: H-RGRAAARRK / III: H-RGRAAARR / IV: H-RGRAAARR; amide I:9-IV:C, I:10-II:C, II:9-III:C; N-terminus and C-terminus assumed) | 169 |
| CC(C)[C@H](NC(=O)[C@H](C)NC(=O)[C@H](C)NC(=O)[C@H](C)NC(=O)CNC(=O)[C@@H](N)CCCNC(=N)N)C(=O)N[C@@H](CCCNC(=N)N)C(=O)N[C@@H](CCCNC(=N)N)C(=O)NCCCC[C@H](NC(=O)[C@H](CCCNC(=N)N)NC(=O)[C@H](CCCNC(=N)N)NC(=O)[C@@H](NC(=O)[C@H](C)NC(=O)[C@H](C)NC(=O)[C@H](C)NC(=O)CNC(=O)[C@@H](N)CCCNC(=N)N)C(C)C)C(=O)NCCCC[C@H](NC(=O)[C@H](CCCCNC(=O)[C@H](CCCNC(=N)N)NC(=O)[C@H](CCCNC(=N)N)NC(=O)[C@@H](NC(=O)[C@H](C)NC(=O)[C@H](C)NC(=O)[C@H](C)NC(=O)CNC(=O)[C@@H](N)CCCNC(=N)N)C(C)C)NC(=O)[C@H](CCCNC(=N)N)NC(=O)[C@H](CCCNC(=N)N)NC(=O)[C@@H](NC(=O)[C@H](C)NC(=O)[C@H](C)NC(=O)[C@H](C)NC(=O)CNC(=O)[C@@H](N)CCCNC(=N)N)C(C)C)C(=O)N[C@@H](CCCCN)C(=O)O [[(SEQ ID NO: 14)2K]2KK] (I: H-RGAAAVRRKKK-OH / II: H-RGAAAVRRK / III: H-RGAAAVRR / IV: H-RGAAAVRR; amide I:9-IV:C, I:10-II:C, II:9-III:C; N-terminus and C-terminus assumed) | > 257 |
| CC(C)[C@H](NC(=O)[C@H](CCCCN)NC(=O)[C@H](CCCNC(=N)N)NC(=O)CNC(=O)[C@@H](N)CCCNC(=N)N)C(=O)N[C@H](C(=O)N[C@@H](CCCNC(=N)N)C(=O)N[C@@H](C)C(=O)NCCCC[C@H](NC(=O)[C@H](C)NC(=O)[C@H](CCCNC(=N)N)NC(=O)[C@@H](NC(=O)[C@@H](NC(=O)[C@H](CCCCN)NC(=O)[C@H](CCCNC(=N)N)NC(=O)CNC(=O)[C@@H](N)CCCNC(=N)N)C(C)C)C(C)C)C(=O)NCCCC[C@H](NC(=O)[C@H](CCCCNC(=O)[C@H](C)NC(=O)[C@H](CCCNC(=N)N)NC(=O)[C@@H](NC(=O)[C@@H](NC(=O)[C@H](CCCCN)NC(=O)[C@H](CCCNC(=N)N)NC(=O)CNC(=O)[C@@H](N)CCCNC(=N)N)C(C)C)C(C)C)NC(=O)[C@H](C)NC(=O)[C@H](CCCNC(=N)N)NC(=O)[C@@H](NC(=O)[C@@H](NC(=O)[C@H](CCCCN)NC(=O)[C@H](CCCNC(=N)N)NC(=O)CNC(=O)[C@@H](N)CCCNC(=N)N)C(C)C)C(C)C)C(=O)N[C@@H](CCCCN)C(=O)O)C(C)C [Peptide B4010-R8A] (I: H-RGRKVVRAKKK-OH / II: H-RGRKVVRAK / III: H-RGRKVVRA / IV: H-RGRKVVRA; amide I:9-IV:C, I:10-II:C, II:9-III:C) | > 237 |
| C[C@H](NC(=O)[C@H](C)NC(=O)[C@H](CCCCN)NC(=O)[C@H](CCCNC(=N)N)NC(=O)CNC(=O)[C@@H](N)CCCNC(=N)N)C(=O)N[C@@H](CCCNC(=N)N)C(=O)N[C@@H](CCCNC(=N)N)C(=O)NCCCC[C@H](NC(=O)[C@H](CCCNC(=N)N)NC(=O)[C@H](CCCNC(=N)N)NC(=O)[C@H](C)NC(=O)[C@H](C)NC(=O)[C@H](CCCCN)NC(=O)[C@H](CCCNC(=N)N)NC(=O)CNC(=O)[C@@H](N)CCCNC(=N)N)C(=O)NCCCC[C@H](NC(=O)[C@H](CCCCNC(=O)[C@H](CCCNC(=N)N)NC(=O)[C@H](CCCNC(=N)N)NC(=O)[C@H](C)NC(=O)[C@H](C)NC(=O)[C@H](CCCCN)NC(=O)[C@H](CCCNC(=N)N)NC(=O)CNC(=O)[C@@H](N)CCCNC(=N)N)NC(=O)[C@H](CCCNC(=N)N)NC(=O)[C@H](CCCNC(=N)N)NC(=O)[C@H](C)NC(=O)[C@H](C)NC(=O)[C@H](CCCCN)NC(=O)[C@H](CCCNC(=N)N)NC(=O)CNC(=O)[C@@H](N)CCCNC(=N)N)C(=O)N[C@@H](CCCCN)C(=O)O [[(SEQ ID NO: 13)2K]2KK] (I: H-RGRKAARRKKK-OH / II: H-RGRKAARRK / III: H-RGRKAARR / IV: H-RGRKAARR; amide I:9-IV:C, I:10-II:C, II:9-III:C; N-terminus and C-terminus assumed) | 46 |
| CC(C)[C@H](NC(=O)[C@H](C)NC(=O)[C@H](CCCCN)NC(=O)[C@H](CCCNC(=N)N)NC(=O)CNC(=O)[C@@H](N)CCCNC(=N)N)C(=O)N[C@@H](CCCNC(=N)N)C(=O)N[C@@H](CCCNC(=N)N)C(=O)NCCCC[C@H](NC(=O)[C@H](CCCNC(=N)N)NC(=O)[C@H](CCCNC(=N)N)NC(=O)[C@@H](NC(=O)[C@H](C)NC(=O)[C@H](CCCCN)NC(=O)[C@H](CCCNC(=N)N)NC(=O)CNC(=O)[C@@H](N)CCCNC(=N)N)C(C)C)C(=O)NCCCC[C@H](NC(=O)[C@H](CCCCNC(=O)[C@H](CCCNC(=N)N)NC(=O)[C@H](CCCNC(=N)N)NC(=O)[C@@H](NC(=O)[C@H](C)NC(=O)[C@H](CCCCN)NC(=O)[C@H](CCCNC(=N)N)NC(=O)CNC(=O)[C@@H](N)CCCNC(=N)N)C(C)C)NC(=O)[C@H](CCCNC(=N)N)NC(=O)[C@H](CCCNC(=N)N)NC(=O)[C@@H](NC(=O)[C@H](C)NC(=O)[C@H](CCCCN)NC(=O)[C@H](CCCNC(=N)N)NC(=O)CNC(=O)[C@@H](N)CCCNC(=N)N)C(C)C)C(=O)N[C@@H](CCCCN)C(=O)O [Peptide B4010-V5A] (I: H-RGRKAVRRKKK-OH / II: H-RGRKAVRRK / III: H-RGRKAVRR / IV: H-RGRKAVRR; amide I:9-IV:C, I:10-II:C, II:9-III:C) | 190 |
| CC(C)[C@H](NC(=O)[C@H](C)NC(=O)[C@H](CCCNC(=N)N)NC(=O)CNC(=O)[C@@H](N)CCCNC(=N)N)C(=O)N[C@H](C(=O)N[C@@H](CCCNC(=N)N)C(=O)N[C@@H](CCCNC(=N)N)C(=O)NCCCC[C@H](NC(=O)[C@H](CCCNC(=N)N)NC(=O)[C@H](CCCNC(=N)N)NC(=O)[C@@H](NC(=O)[C@@H](NC(=O)[C@H](C)NC(=O)[C@H](CCCNC(=N)N)NC(=O)CNC(=O)[C@@H](N)CCCNC(=N)N)C(C)C)C(C)C)C(=O)NCCCC[C@H](NC(=O)[C@H](CCCCNC(=O)[C@H](CCCNC(=N)N)NC(=O)[C@H](CCCNC(=N)N)NC(=O)[C@@H](NC(=O)[C@@H](NC(=O)[C@H](C)NC(=O)[C@H](CCCNC(=N)N)NC(=O)CNC(=O)[C@@H](N)CCCNC(=N)N)C(C)C)C(C)C)NC(=O)[C@H](CCCNC(=N)N)NC(=O)[C@H](CCCNC(=N)N)NC(=O)[C@@H](NC(=O)[C@@H](NC(=O)[C@H](C)NC(=O)[C@H](CCCNC(=N)N)NC(=O)CNC(=O)[C@@H](N)CCCNC(=N)N)C(C)C)C(C)C)C(=O)N[C@@H](CCCCN)C(=O)O)C(C)C [Peptide B4010-K4A] (I: H-RGRAVVRRKKK-OH / II: H-RGRAVVRRK / III: H-RGRAVVRR / IV: H-RGRAVVRR; amide I:9-IV:C, I:10-II:C, II:9-III:C) | > 231 |
| CC(C)[C@H](NC(=O)[C@H](CCCCN)NC(=O)[C@H](CCCNC(=N)N)NC(=O)CNC(=O)[C@@H](N)CCCNC(=N)N)C(=O)N[C@H](C(=O)N[C@@H](C)C(=O)N[C@@H](CCCNC(=N)N)C(=O)NCCCC[C@H](NC(=O)[C@H](CCCNC(=N)N)NC(=O)[C@H](C)NC(=O)[C@@H](NC(=O)[C@@H](NC(=O)[C@H](CCCCN)NC(=O)[C@H](CCCNC(=N)N)NC(=O)CNC(=O)[C@@H](N)CCCNC(=N)N)C(C)C)C(C)C)C(=O)NCCCC[C@H](NC(=O)[C@H](CCCCNC(=O)[C@H](CCCNC(=N)N)NC(=O)[C@H](C)NC(=O)[C@@H](NC(=O)[C@@H](NC(=O)[C@H](CCCCN)NC(=O)[C@H](CCCNC(=N)N)NC(=O)CNC(=O)[C@@H](N)CCCNC(=N)N)C(C)C)C(C)C)NC(=O)[C@H](CCCNC(=N)N)NC(=O)[C@H](C)NC(=O)[C@@H](NC(=O)[C@@H](NC(=O)[C@H](CCCCN)NC(=O)[C@H](CCCNC(=N)N)NC(=O)CNC(=O)[C@@H](N)CCCNC(=N)N)C(C)C)C(C)C)C(=O)N[C@@H](CCCCN)C(=O)O)C(C)C [Peptide B4010-R7A] (I: H-RGRKVVARKKK-OH / II: H-RGRKVVARK / III: H-RGRKVVAR / IV: H-RGRKVVAR; amide I:9-IV:C, I:10-II:C, II:9-III:C) | > 237 |

Reference: US20150225454A1, “TETRABRANCHED PEPTIDES AND ANALOGUES AS A NEW CLASS OF ANTIMICROBIALS AND THEIR PREPARATION THEREOF” (priority 2012, published 2015)
